Experimental data taken from patent US4304861A, “Process of producing antibiotic SM-173B with Streptomyces chromofuscus” (Hoffmann-La Roche Inc., priority 1977, dated 1981).
Converted amounts (≈) assume the structure as drawn.

Columns and labels:
Aspergillus niger = test: Minimum Inhibitory Concentration (MIC), antibacterial spectrum; format: cell-based
From the text: (§1) The antibacterial spectrum is evident from the following Table:
(§2) Minimum Inhibitory Concentration (MIC)
(§3) Test organism MIC (μg/ml)

Bacillus cereus = test: as above; format: cell-based
From the text: as §1, §2, §3

Bacillus subtilis = test: as above; format: cell-based
From the text: as §1, §2, §3

Echerichia coli = test: as above; format: cell-based
From the text: as §1, §2, §3

Micrococcus flavus = test: as above; format: cell-based
From the text: as §1, §2, §3

Mycobacterium avium = test: as above; format: cell-based
From the text: as §1, §2, §3

[1] = test system: Mycobacterium rhodochrous; test: as above; format: cell-based
From the text: as §1, §2, §3

Mycobacterium smegmatis = test: as above; format: cell-based; details: Mycolicibacterium smegmatis
From the text: as §1, §2, §3

Penicillium citrinum = test: as above; format: cell-based
From the text: as §1, §2, §3

Sarcina lutea = test: as above; format: cell-based; details: Micrococcus luteus
From the text: as §1, §2, §3

[2] = test system: Staphylococcus aureus 209P; test: as above; format: cell-based
From the text: as §1, §2, §3

[3] = test system: Staphylococcus epidermidis; test: as above; format: cell-based
From the text: as §1, §2, §3

[4] = Toxicity, intraperitoneal administration to mice; details: mouse, in vivo, ip
Procedure: The LD50 is greater than 200 mg/kg in the case of intraperitoneal administration to mice.

Solubility = format: physicochemical
[5] = Acidity (physico-chemical properties); format: physicochemical
gram-positive bacteria = test: Antibiotic activity (summary of MIC table); format: cell-based; details: a large number of gram-positive bacteria
From the text: as §1, §2, §3

mycobacteria = test: Antibiotic activity (summary of MIC table); format: cell-based
From the text: as §1, §2, §3

COC1Cc2c(cc3c(c2O)C(=O)c2c(O)cccc2C3=O)C(=O)C1(C)O (stereo not drawn) [Antibiotic SM-173B]
MIC (Aspergillus niger): 100 µg/mL (≈ 271 µM) | MIC (Bacillus cereus): 6.26 µg/mL (≈ 17 µM) | MIC (Bacillus subtilis): 6.25 µg/mL (≈ 17 µM) | MIC (Echerichia coli): 100 µg/mL (≈ 271 µM) | MIC (Micrococcus flavus): 6.25 µg/mL (≈ 17 µM) | MIC (Mycobacterium avium): 6.25 µg/mL (≈ 17 µM) | MIC [1]: 3.13 µg/mL (≈ 8.5 µM) | MIC (Mycobacterium smegmatis): 3.13 µg/mL (≈ 8.5 µM) | MIC (Penicillium citrinum): 100 µg/mL (≈ 271 µM) | MIC (Sarcina lutea): 12.5 µg/mL (≈ 33.9 µM) | MIC [2]: 6.25 µg/mL (≈ 17 µM) | MIC [3]: 3.13 µg/mL (≈ 8.5 µM) | LD50 [4]: > 200 mg/kg | Solubility (Solubility; in methanol, ethanol, butanol, acetone, chloroform, ethyl acetate): Soluble | Solubility (Solubility; in n-hexane): poorly soluble | Solubility (Solubility; in petroleum ether): insoluble | Solubility (Solubility; in water): insoluble | Solubility (Solubility; in water under alkaline conditions): Soluble | acidity [5]: weakly acid | antibiotic activity (gram-positive bacteria): antibiotically active | antibiotic activity (mycobacteria): antibiotically active
